Source: patent publication US20070093448A1, “Complexes that consist of vitamin D compounds or analogs thereof with a 5Z,7E,10(19)-triene system and methylated derivatives of beta-cyclodextrin” (priority 2005, published 2007)
Marks after values point to notes of the source that are not given here. Values belong to the compound of their own block, whether it stands above or below them.

What was measured:
[1] = Isomerization to the previtamin in the complexing with cyclodextrins (HPLC); type: physicochemical
Description: It is stirred for 2 hours at 22° C. and for 2 hours at 0° C. The solid is suctioned off and washed with 5 ml of cold water. After drying, 1.73 g (90% of theory) is obtained as a white solid. After HPLC (Stat. phase Chiracel JHRH 150×4.6 mm ID, detection 244 nm, eluant water/acetonitrile, flow: 1 ml/minute, gradient t0=70+30 v/v, linear increase of the gradient over 10 minutes t10 min to 60+40 v/v, isocratic t10 min-30 min 60+40 v/v), the solid, in addition to ergocalciferol (tRet.=26 minutes), contains 24% of the previtamin form (tRet.=23 minutes).
10 mg (0.024 mmol, MW 416.65) of calcitriol (dissolved in 100 μl of ethanol) is added in drops to the clear solution over 10 minutes. It is stirred for 2 hours at 22° C. and for 2 hours at 0-3° C., the solid is filtered off, and it is washed 2 times with 100 μl each of cold water. After drying at 20° C. and 0.5 mbar (24 hours), 26.6 mg of calcitriol-β-CD complex (71.5% of theory) is obtained. After the solid is dissolved in methanol and after an HPLC study (Stat. Phase Chiracel JHRH 150×4.6 mm ID, detection 244 nm, eluant water/acetonitrile, flow: 1 ml/minute, gradient t0=70+30 v/v, linear increase of the gradient over 10 minutes t10 min to 60+40 v/v, isocratic t10 min-30 min 60+40 v/v), the solid contains 23% of the previtamin form (tRet.=12 minutes) in addition to calcitriol (tRet.=17 minutes).
At 25° C., 100 mg (0.21 mmol) of (thiazol-2-yl)-26,27-dinor-9,10-secocholesta-5,7,10(19)-triene-1,3,25-triol (dissolved in 0.5 ml of ethanol) is added. It is stirred for 2 hours at room temperature, then for 2 hours at 0° C. The solid is filtered off, washed with 1 ml of cold water and dried. 290 mg (85% of theory) of solid is obtained. The content of the solid in the previtamin (compound 2) is 20% (HPLC, Stat. Phase Chiracel JHRH 150×4.6 mm ID, detection 244 nm, eluant water/acetonitrile, flow: 1 ml/minute, gradient to =70+30 v/v, linear increase of the gradient over 10 minutes t10 min to 60+40 v/v, isocratic t10 min-30 min 60+40 v/v, tRef. Compound 2: 11.65 minutes, tRef. Compound 1: 18.19 minutes). The sample preparation is carried out by dissolving the complex in 100% methanol.
For analytical study, the complexes can be dissolved in methanol or DMF and can be used in these solutions for the HPLC analysis (see 2.1). The content of the complexes that are obtained can be determined in comparison to the pure substance.

[2] = cited from earlier work
[3] = Cyclodextrin solubility in water; type: physicochemical
[4] = Stability of the DIMEB complex from Example 3 a) 1 and the non-complexed active ingredient; type: physicochemical
Source text: In Table 4 below, the stabilities of the DIMEB complex from Example 3 a) 1. and the non-complexed active ingredient are compiled: […]

[5] = Storage of compound 1 at room temperature; type: physicochemical; details: after four months at room temperature
[6] = cited from earlier work; remark: listed apart in the source
[7] = Exp. 10: 15 d/40° C. aqueous, 80 μg of DIMEB complex per ml, compound 1 20 μg per ml
[8] = Exp. 11: 15 d/60° C. aqueous, 80 μg of DIMEB complex per ml, compound 1 20 μg per ml
[9] = Exp. 12: 15 d/80° C. aqueous, 80 μg of DIMEB complex per ml, compound 1 20 μg per ml
[10] = Exp. 13: 30 d/40° C. aqueous, 80 μg of DIMEB complex per ml, compound 1 20 μg per ml
[11] = Exp. 14: 30 d/60° C. aqueous, 80 μg of DIMEB complex per ml, compound 1 20 μg per ml

SMILES: C=C1CC[C@H](O)C/C1=C/C=C1\CCC[C@]2(C)[C@@H]([C@H](C)/C=C/[C@H](C)C(C)C)CC[C@@H]12 [Ergocalciferol, (5Z,7E,22E)-(3S)-9,10-secoergosta-5,7,10(19),22-tetraen-3-ol]
previtamin formation / isomerization (in words) [1]: do not show any significant previtamin formation
% Previtamin (in Solution) ([1]; Table 1, without cyclodextrin): 0.2%

SMILES: OC[C@H]1O[C@@H]2O[C@H]3[C@H](O)[C@@H](O)[C@@H](O[C@H]4[C@H](O)[C@@H](O)[C@@H](O[C@H]5[C@H](O)[C@@H](O)[C@@H](O[C@H]6[C@H](O)[C@@H](O)[C@@H](O[C@H]7[C@H](O)[C@@H](O)[C@@H](O[C@H]8[C@H](O)[C@@H](O)[C@@H](O[C@H]9[C@H](O)[C@@H](O)[C@@H](O[C@H]1[C@H](O)[C@H]2O)O[C@@H]9CO)O[C@@H]8CO)O[C@@H]7CO)O[C@@H]6CO)O[C@@H]5CO)O[C@@H]4CO)O[C@@H]3CO [γ-Cyclodextrin, γ-cyclodextrin]
Cyclodextrin Solubility in Water (20° C.) ([2]; 20° C., source Szejtly 1988): 23.3 g/100 ml

SMILES: COC[C@H]1O[C@@H]2O[C@H]3[C@H](OC)[C@@H](OC)[C@@H](O[C@H]4[C@H](OC)[C@@H](OC)[C@@H](O[C@H]5[C@H](OC)[C@@H](OC)[C@@H](O[C@H]6[C@H](OC)[C@@H](OC)[C@@H](O[C@H]7[C@H](OC)[C@@H](OC)[C@@H](O[C@H]8[C@H](OC)[C@@H](OC)[C@@H](O[C@H]1[C@H](OC)[C@H]2OC)O[C@@H]8COC)O[C@@H]7COC)O[C@@H]6COC)O[C@@H]5COC)O[C@@H]4COC)O[C@@H]3COC [TRIMEB]
CD-Water Solubility (g/100 ml), (25° C.) [3]: 200 g/100 ml

Second part, led by results:

% Previtamin (in Solution) ([1]; Table 1, without cyclodextrin): 0.3%
SMILES: C=C1/C(=C\C=C2/CCC[C@]3(C)[C@@H]([C@H](C)CCCC(C)(C)O)CC[C@@H]23)C[C@@H](O)C[C@@H]1O [Calcitriol, (5Z,7E)-(1S,3R)-9,10-secocholesta-5,7,10(19)-triene-1,3,25-triol]
previtamin formation / isomerization (in words) [1]: do not show any significant previtamin formation

% Previtamin (in Solution) ([1]; Table 2, compound 1 without CD): 0.2 (in %
% Previtamin ([1]; Table 3, compound 1 without CD): 0.3%
By-Products ([4]; Exp. 2: 30 d 40° C.): 3.08%
Purity ([4]; Exp. 2: 30 d 40° C.): 96.08%
By-Products ([4]; Exp. 3: 3 d/80° C./75% rel F.): 77.45%
Purity ([4]; Exp. 3: 3 d/80° C./75% rel F.): 22.55%
By-Products ([4]; Exp. 4: 7 d/80° C./75% rel F.): 95.34%
Purity ([4]; Exp. 4: 7 d/80° C./75% rel F.): 4.66%
By-Products ([4]; Exp. 5: 15 d/40° C./75% rel F.): 2.9%
Purity ([4]; Exp. 5: 15 d/40° C./75% rel F.): 96.61%
By-Products ([4]; Exp. 6: 15 d/60° C./75% rel F.): 2.96%
Purity ([4]; Exp. 6: 15 d/60° C./75% rel F.): 96.34%
By-Products ([4]; Exp. 7: 15 d/80° C./75% rel F.): 100%
Purity ([4]; Exp. 7: 15 d/80° C./75% rel F.): 0%
By-Products ([4]; Exp. 8: 30 d/40° C./75% rel F.): 3.00%
Purity ([4]; Exp. 8: 30 d/40° C./75% rel F.): 96.7%
By-Products ([4]; Exp. 9: 30 d/60° C./75% rel F.): 2.98%
Purity ([4]; Exp. 9: 30 d/60° C./75% rel F.): 96.23%
By-Products [4, 7]: 2.92** %
Purity [4, 7]: 92.78%
By-Products [4, 8]: 18.69** %
Purity [4, 8]: 77.12%
By-Products [4, 9]: 96.72** %
Purity [4, 9]: 3.28%
By-Products [4, 10]: 3.20** %
Purity [4, 10]: 91.96%
By-Products [4, 11]: 37.26** %
Purity [4, 11]: 59.76%
By-Products ([4]; Start): 3%
Purity ([4]; Start): 96.12%
previtamin content [5]: about 2%
content ([5]; in comparison to fresh samples or samples stored under inert conditions): 60%
SMILES: C=C1/C(=C\C=C2/CCC[C@]3(C)[C@@H]([C@H](C)CCC[C@H](O)c4nccs4)CC[C@@H]23)C[C@@H](O)C[C@@H]1O [Compound 1, (thiazol-2-yl)-26,27-dinor-9,10-secocholesta-5,7,10(19)-triene-1,3,25-triol]

CD-Water Solubility (g/100 ml), (25° C.) [3]: 25 g/100 ml
SMILES: COC[C@H]1O[C@@H]2O[C@H]3[C@H](O)[C@@H](OC)[C@@H](O[C@H]4[C@H](O)[C@@H](OC)[C@@H](O[C@H]5[C@H](O)[C@@H](OC)[C@@H](O[C@H]6[C@H](O)[C@@H](OC)[C@@H](O[C@H]7[C@H](O)[C@@H](OC)[C@@H](O[C@H]8[C@H](O)[C@@H](OC)[C@@H](O[C@H]1[C@H](O)[C@H]2OC)O[C@@H]8COC)O[C@@H]7COC)O[C@@H]6COC)O[C@@H]5COC)O[C@@H]4COC)O[C@@H]3COC [DIMEB, Heptakis-(2,6-di-O-methyl)-β-cyclodextrin]
solubility of the DIMEB ([2]; Saenger et al. 2002, Uekama, Irie 1987): 60 g/100 ml of water
solubility in water ([2]; at 20° C., Saenger et al. 2002): > 50 g/100 ml of water
solubility in water while being heated ([2]; while being heated, Saenger et al. 2002): < 1 g/100 ml
effects in intravenous administration [6]: hemolytic effects
